From patent US10520504B2, “Fluorescent polybranched probes for detecting bacteria and/or fungi in vitro and in vivo” (priority 2014, dated 2019)
Entries after “also recorded” stand apart in the source; their conditions may differ. Numbered stars: 1 amine (or outer) side, 2 acyl side, 3 side chain; on linkers, the order of the positions; unused ones are H or OH. Bridge positions count the residues as written; N and C are the ends. Square brackets hold non-standard residues; d marks the D form. Ends that are not written are not given here. Peptide text beside a SMILES is read from it. I, II: the chains in the order shown. * marks the point of attachment. ξ: configuration not given here. X2 = CN(C)c1ccc2c(c1)Oc1cc(N(C)C)ccc1C21OC(=O)c2ccc(C(=O)*)cc21; X1 = NC(=O)NC(COCCCN[*:1])(COCCCN[*:2])COCCCN[*:3]; NBD = O=[N+]([O-])c1ccc(*)c2nonc12; dDab = NCC[C@@H](N)C(=O)O; Nle = CCCC[C@H](N)C(=O)O; Dab = NCC[C@H](N)C(=O)O; AEEA = NCCOCCOCC(=O)O; ξDab = NCCC(N)C(=O)O; ξK = NCCCCC(N)C(=O)O; ξV = CC(C)C(N)C(=O)O; Ahx = NCCCCCC(=O)O; ξP = O=C(O)C1CCCN1; ξA = CC(N)C(=O)O

Assays:
[1] = Stability in saline or ALI BALF by MALDI-TOF MS / FTMS; conditions: incubated 30 minutes
Experimental: Secondly we assessed stability of the probes in BALF from patients with ALI by FTMS and MALDI-TOF MS analysis. NBD-UBINle, NBD-UBIdend and NBD-PMX were incubated for 30 minutes with BALF (FIG. 13).
In vitro labelling was assessed on benchtop confocal in the presence of compound with bacteria and labelling was compared to NBD-UBINle which served as a reference control for bacterial labelling. […] For the ex vivo and in vivo ovine lung experiments each compound was assessed in a control lung segment (instilled with 2 ml PBS) or a bacterial segment (instilled with 2 ml of 2 optical density of bacteria). Following bacterial instillation, the compound was administered to the segment of interest and this was imaged by probe based FCFM.
Probe was added to saline or pooled BALF from patients with ALI incubated for 30 minutes. A ZipTip (C-18, 0.2 μL) with 5 μL MeCN (with 0.1% TFA as an additive) followed by 20 μL of H2O was washed. The ZipTip was loaded with the sample, washed and eluted into 5 μL of 80% aq. MeCN (with 0.1% TFA as an additive). The sample was analysed by MALDI-TOF (PerSeptive Biosystems Voyager DE™STR MALDI-TOF mass spectrometer (Applied Biosystems, Foster City, Calif.)).

[2] = biological target: T1, human neutrophil elastase (HNE) (Homo sapiens, UniProt P08246); experiment: Elastase dependent bacterial labelling in co-culture of bacteria and neutrophils; format: cell-based; conditions: for labelling of activated neutrophils: TAMRA signal; for elastase dependent bacterial labelling: bacteria with neutrophils
T1 construct: endogenous in cells; host or cells: isolated human neutrophils (co-culture with MSSA or P. aeruginosa)
T1 sequence (P08246 30-267): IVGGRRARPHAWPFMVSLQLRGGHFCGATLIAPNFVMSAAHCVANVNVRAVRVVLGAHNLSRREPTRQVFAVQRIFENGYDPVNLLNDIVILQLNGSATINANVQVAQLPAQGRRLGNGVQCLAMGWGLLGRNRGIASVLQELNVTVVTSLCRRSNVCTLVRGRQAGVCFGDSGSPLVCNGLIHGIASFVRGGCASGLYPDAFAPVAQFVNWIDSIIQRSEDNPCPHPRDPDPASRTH
Source text: A first example of elastase sensitive probes (shown schematically in FIG. 16A) comprises methyl red (acting as a dark quencher) connected via the peptide sequence AAPV (SEQ. ID NO: 9). (acting as the enzyme cleavable peptide sequence of the cleavable linker) to 7-nitrobenz-2-oxa-1,3-diazole (NBD) and the ubiquicidin fragment UBI29-41 (together acting as the probe element). Accordingly, the NBD fluorescence is quenched by the methyl red and no fluorescent signal will be observed (i.e. the methyl red and NBD are acting as a FRET pair) and therefore, whether or not the probe is bound to any bacteria that may be present in the target area via UBI29-41, no signal is observed using confocal microscopy.
When the probe is in the presence of human neutrophil elastase (HNE), such as in inflamed tissue, HNE cleaves the peptide sequence of the linker, to thereby free the probe element from the methyl red quencher. Accordingly, the NBD fluorophore is no longer quenched and produces a fluorescent signal. In addition, due to the environmental sensitivity of the NBD, the signal produced is greatly amplified if the NBD is in a hydrophobic environment, such as within a cell membrane.

elastase = elastase (Homo sapiens, UniProt P08246); conditions: ex 525 nm, Em 580 nm

In the case of “I: {NBD-AEEA}-TGRAKRR[Nle]QYNRR[AEEA] / II: {NBD-AEEA}-TGRAKRR[Nle]QYNRR[AEEA] / III: {NBD-AEEA}-TGRAKRR[Nle]QYNRR[AEEA] (linker I:C-II:C-III:C via X1) [NBD-UBIdend]”, the “stability in BALF from patients with ALI” value [1] is reported as “remains stable; also recorded: demonstrate stability”.

With `CC(C)C[C@H]1NC(=O)[C@@H](Cc2ccccc2)NC(=O)[C@@H](CCN)NC(=O)C(NC(=O)[C@H](CCN)NC(=O)[C@@H](NC(=O)COCCOCCNC(=O)C(CCCCNc2ccc([N+](=O)[O-])c3nonc23)NC(=O)C(NC(=O)C2CCCN2C(=O)C(C)NC(=O)C(C)NC(=O)c2ccc3c(c2)C2(OC3=O)c3ccc(N(C)C)cc3Oc3cc(N(C)C)ccc32)C(C)C)[C@@H](C)O)CCNC(=O)[C@@H]([C@H](C)O)NC(=O)[C@H](CCN)NC(=O)[C@H](CCN)NC1=O` (stereo partly drawn) [TAMRA-AAPV-NBD-PMX] (X2-[ξA][ξA][ξP][ξV][ξK](NBD)[AEEA]T[Dab][ξDab][dDab][dF][dL][Dab][Dab][dT]; lactam 9-C) the “bacterial labelling with unactivated neutrophils” value ([2]; P. aeruginosa) was “no labelling in the presence of unactivated neutrophils”, the “labelling of activated neutrophils” value [2] was “labelling of activated neutrophils in an elastase independent manner” and the “labelling of activated neutrophils” value ([2]; listed as Example 2) was “labelled by the TAMRA moiety”. For the same compound, the “elastase dependent bacterial labelling” value [2] was “bacterial labelling in an elastase dependent manner”, the “elastase dependent bacterial labelling” value ([2]; listed as Example 2) was “the bacteria are labelled by the probe element” and the “TAMRA fluorescence increase with elastase inhibitor” value (elastase) was “inhibited with an elastase inhibitor”. The “fluorescence of TAMRA following cleavage” value (elastase; elastase) was “increase in fluorescence”.

In the case of “Example 1: methyl red dark quencher connected via AAPV to NBD and ubiquicidin fragment UBI29-41 (also: methyl red quencher attached, side not given here, NBD and ubiquicidin fragment UBI29-41 attached, side not given here)”, the “elastase dependent bacterial labelling” value [2] is reported as “cleaved by neutrophil derived HNE and to label bacteria” and the “bacterial labelling with elastase inhibitor” value ([2]; sivelestat added to the medium) is reported as “no labelling was observed”.

With `CCCC[C@H](NC(=O)[C@H](CCCNC(=N)N)NC(=O)[C@H](CCCNC(=N)N)NC(=O)[C@H](CCCCN)NC(=O)[C@H](C)NC(=O)[C@H](CCCNC(=N)N)NC(=O)CNC(=O)[C@@H](NC(=O)CCCCCNc1ccc([N+](=O)[O-])c2nonc12)[C@@H](C)O)C(=O)N[C@@H](CCC(N)=O)C(=O)N[C@@H](Cc1ccc(O)cc1)C(=O)N[C@@H](CC(N)=O)C(=O)N[C@@H](CCCNC(=N)N)C(=O)N[C@@H](CCCNC(=N)N)C(N)=O` [NBD-UBINle] ({NBD-Ahx}-TGRAKRR[Nle]QYNRR-NH2; N-terminus and C-terminus assumed) the “stability in BALF from patients with ALI” value [1] was “degradation; also recorded: instability in lavage fluid”.
